Read-outs that look alike come from different tables or passages of the source.
Columns and labels:
human 5-HT6 = target: T1, human 5-HT6 (Homo sapiens, UniProt P50406); test: Competition binding with [3H]-LSD at membranes of HEK-293 cells expressing human 5-HT6
T1 construct: expressed in transfected cells; host or cells: HEK-293 (HEK293-h5-HT6)
Description: All test and control compounds were dissolved in 100% DMSO at 10 mM and diluted as indicated in aqueous assay buffer. K1 values are presented at the mean and standard deviation of 3 separate determinations each consisting of the compound tested at each concentration in duplicate.

human recombinant 5-HT2A = human recombinant 5-HT2A (Homo sapiens, UniProt P28223); test: Receptor affinity at 5-HT2A (Table 1; only a FLIPR calcium method is described); type: binding; conditions: read-out: Receptor Affinity (pKi) 5-HT2A (converted)
human recombinant 5-HT2C = target: T2, human recombinant 5-HT2C (Homo sapiens, UniProt P28335); test: Receptor affinity at 5-HT2C (Table 1; only a FLIPR calcium method is described); type: binding
T2 sequence (P28335 33-458): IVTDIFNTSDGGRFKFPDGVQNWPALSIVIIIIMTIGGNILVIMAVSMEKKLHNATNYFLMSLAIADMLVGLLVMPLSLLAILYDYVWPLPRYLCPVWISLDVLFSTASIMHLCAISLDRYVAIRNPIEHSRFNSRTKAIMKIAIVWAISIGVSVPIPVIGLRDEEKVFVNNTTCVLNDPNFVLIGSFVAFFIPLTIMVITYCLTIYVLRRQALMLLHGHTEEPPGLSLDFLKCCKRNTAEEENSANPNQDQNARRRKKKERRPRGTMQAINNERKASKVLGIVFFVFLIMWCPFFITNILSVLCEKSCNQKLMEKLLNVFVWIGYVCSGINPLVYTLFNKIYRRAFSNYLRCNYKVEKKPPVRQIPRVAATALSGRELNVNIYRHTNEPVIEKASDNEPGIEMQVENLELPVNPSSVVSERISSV

[1] = target: human recombinant D2 receptor (Homo sapiens, UniProt P14416); test: Ligand binding affinity at Dopamine D2 receptor; conditions: read-out: Receptor Affinity (pKi) Dopamine D2 (converted)
Histamine H1 receptor = target: T3, Histamine H1 receptor (Cavia porcellus, UniProt P31389); test: Affinity to Histamine H1 receptor in guinea-pig cerebellum; type: binding; conditions: read-out: Receptor Affinity (pKi) Histamine H1 (converted)
T3 construct: from tissue; host or cells: guinea-pig cerebellum

human recombinant M1 = target: T4, human recombinant M1 (Homo sapiens, UniProt P11229); test: Binding affinity at Muscarinic M1 receptor; conditions: read-out: Receptor Affinity (pKi) Muscarinic M1 (converted)
T4 sequence (P11229 1-460): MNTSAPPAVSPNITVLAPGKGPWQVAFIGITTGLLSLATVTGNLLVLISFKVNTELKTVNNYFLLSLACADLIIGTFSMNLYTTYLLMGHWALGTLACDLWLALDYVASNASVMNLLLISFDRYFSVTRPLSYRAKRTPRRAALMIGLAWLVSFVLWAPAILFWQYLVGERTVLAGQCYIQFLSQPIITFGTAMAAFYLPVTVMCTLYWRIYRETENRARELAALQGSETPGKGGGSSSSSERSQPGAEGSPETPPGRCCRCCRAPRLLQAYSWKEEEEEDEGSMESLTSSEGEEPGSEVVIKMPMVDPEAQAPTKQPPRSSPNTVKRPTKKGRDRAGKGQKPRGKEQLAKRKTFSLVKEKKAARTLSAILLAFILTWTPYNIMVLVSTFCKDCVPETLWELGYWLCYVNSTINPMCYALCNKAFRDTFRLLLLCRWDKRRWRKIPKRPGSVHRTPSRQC

human recombinant M2 = target: T5, human recombinant M2 (Homo sapiens, UniProt P08172); test: Binding affinity at Muscarinic M2 receptor; conditions: read-out: Receptor Affinity (pKi) Muscarinic M2 (converted)
T5 sequence (P08172 1-466): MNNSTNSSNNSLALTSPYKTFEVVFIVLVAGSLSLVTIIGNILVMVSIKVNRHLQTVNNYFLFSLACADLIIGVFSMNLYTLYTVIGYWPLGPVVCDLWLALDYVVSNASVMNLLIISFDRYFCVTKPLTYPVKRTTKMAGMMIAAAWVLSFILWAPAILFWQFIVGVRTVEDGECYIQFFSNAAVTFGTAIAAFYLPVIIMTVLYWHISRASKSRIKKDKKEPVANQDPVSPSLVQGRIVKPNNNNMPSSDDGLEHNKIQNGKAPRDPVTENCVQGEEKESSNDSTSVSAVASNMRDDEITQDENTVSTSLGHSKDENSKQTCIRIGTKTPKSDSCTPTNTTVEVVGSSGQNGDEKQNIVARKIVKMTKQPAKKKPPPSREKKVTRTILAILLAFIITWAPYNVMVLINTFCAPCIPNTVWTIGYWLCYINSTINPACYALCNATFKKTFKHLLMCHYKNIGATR

male Wistar rats = test: Novel object recognition model, scopolamine-induced memory impairment; type: in vivo, rat; conditions: for reversal of the memory impairment induced by scopolamine (discrimination index d2): 90 or 60 mins prior to scopolamine 0.1 mg/kg ip; for reversal of scopolamine-induced memory impairment (discrimination index d2): with scopolamine 0.1 mg/kg sc, 30 mins prior to re-release
Description: Twenty-four 5-month-old male Wistar rats were used. The animals were housed individually in standard Makrolon cages on sawdust bedding in an air-conditioned room (about 20° C.). They were kept under a 12/12-hour light/dark cycle (lights on from 18.00 to 6.00 h) and had free access to food and water. Rats were housed and test in different rooms. A radio, which was playing softly, provided background noise in all rooms. All testing was done between 9.00 and 16.00 h.
Scopolamine hydrobromide was prepared daily and dissolved in saline. […] (injection volume 1 ml/kg) 30 minutes before trial 1. Test compounds were prepared daily and dissolved in saline, and the pH was adjusted to pH 5-7 using (0.1 N) NaOH. The compounds were administered orally or i.p. over a range of doses to n=12-24 animals per dose (injection volume 1 ml/kg). Time of dosing prior to first trial (T1) can be chosen to match the expected plasma Cmax for the compound. Administration was always given i.p. (injection volume 1 ml/kg).
The object recognition test was performed as described by Ennaceur and Delacour, Behav. Brain Res., 1988, 31, 47-59. This test measures the memory of an animal, by testing the ability of the animal to recognize that there is a new object in its environment. The apparatus consisted of a circular arena, 83 cm in diameter. Half of the 40 cm high wall was made of gray polyvinyl chloride, the other half of transparent polyvinyl chloride. The light intensity was equal in the different parts of the apparatus. Two objects were placed in a symmetrical position about 10 cm away from the gray wall. Each object was available in triplicate. Four different sets of objects were used: 1) a cone consisting of a gray polyvinyl chloride base (maximal diameter 18 cm) with a brass collar on top (total height 16 cm), 2) a standard 1 l transparent glass bottle (diameter 10 cm, height 22 cm) filled with sand, 3) a massive metal block (10.0×5.0×7.5 cm) with two holes (diameter 1.9 cm), and 4) a massive aluminum block with a tapering top (13.0×8.0×8.0 cm). A rat could not displace the objects. Fluorescent red tubes and a light bulb provided a constant illumination of about 20 lux on the floor of the apparatus.
A testing session comprised two trials. The duration of each trial was 3 min. During the first trial (T1) the apparatus contained two identical objects (samples). A rat was always placed in the apparatus facing the wall at the middle of the front (transparent) segment. After the first exploration period the rat was put back in its home cage. Subsequently, after a predetermined delay interval, the rat was put back in the apparatus for the second trial (T2), but now with two dissimilar objects, a familiar one (the sample) and a new object. The times spent in exploring each object during T1 and T2 were recorded manually with a personal computer. “Exploration” was defined as directing the nose to the object at a distance of no more than 2 cm and/or touching the object with the nose. Sitting on the object was not considered as exploratory behavior. In order to avoid the presence of olfactory trails the objects were always thoroughly cleaned. […]
Rats were treated with Compound 18 (0.3, 1, 3 mg/kg po) or Compound 3 (0.1, 0.3, 1 and 3 mg/kg i.p.) 90 or 60 mins prior to administration of scopolamine (0.1 mg/kg ip). The time each animal spent investigating the novel and familiar objects in the arena during a over a 3 min interval, commencing 30 minutes after the administration of scopolamine, was scored. […]

[2] = tested on: rat brain hippocampal slices (CA1 region); test: Long term potentiation in rat hippocampal slices (CA1), fEPSP; type: cell-based; conditions: weak tetanus 50 Hz, 500 ms; room temperature
[3] = read-out: Receptor Affinity (pKi) 5-Ht2C (converted)
[4] = [3H]-LSD, HEK293-h5-HT6 membranes, read-out: Receptor Affinity (pKi) 5-HT6 (converted)

T3 sequence (P31389 whole entry): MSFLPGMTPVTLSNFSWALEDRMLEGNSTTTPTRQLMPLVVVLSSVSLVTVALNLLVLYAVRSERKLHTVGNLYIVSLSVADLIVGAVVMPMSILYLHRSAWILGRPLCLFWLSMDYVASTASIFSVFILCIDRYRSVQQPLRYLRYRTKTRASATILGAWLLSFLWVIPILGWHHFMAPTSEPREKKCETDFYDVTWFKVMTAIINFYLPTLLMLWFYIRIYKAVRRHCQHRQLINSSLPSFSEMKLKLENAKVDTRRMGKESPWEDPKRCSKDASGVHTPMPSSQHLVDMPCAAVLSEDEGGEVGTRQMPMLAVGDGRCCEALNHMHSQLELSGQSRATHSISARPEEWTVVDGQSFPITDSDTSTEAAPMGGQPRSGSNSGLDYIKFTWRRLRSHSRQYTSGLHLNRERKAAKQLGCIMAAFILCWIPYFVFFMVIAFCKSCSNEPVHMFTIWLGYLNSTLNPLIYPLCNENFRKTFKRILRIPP
Sequence of human recombinant 5-HT2A (P28223 whole entry): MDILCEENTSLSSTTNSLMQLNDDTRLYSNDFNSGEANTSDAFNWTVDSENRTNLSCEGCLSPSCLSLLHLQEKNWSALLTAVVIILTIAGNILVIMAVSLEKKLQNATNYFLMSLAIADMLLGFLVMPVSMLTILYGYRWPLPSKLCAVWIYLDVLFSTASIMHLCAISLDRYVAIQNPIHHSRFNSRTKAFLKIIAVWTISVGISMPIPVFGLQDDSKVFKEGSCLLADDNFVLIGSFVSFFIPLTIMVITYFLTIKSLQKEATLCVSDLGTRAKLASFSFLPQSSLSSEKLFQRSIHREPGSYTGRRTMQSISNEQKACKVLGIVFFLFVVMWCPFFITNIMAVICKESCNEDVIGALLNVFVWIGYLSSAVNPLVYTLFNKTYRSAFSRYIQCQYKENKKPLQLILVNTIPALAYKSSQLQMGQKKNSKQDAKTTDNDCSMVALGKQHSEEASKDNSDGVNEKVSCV
T1 sequence (P50406 whole entry): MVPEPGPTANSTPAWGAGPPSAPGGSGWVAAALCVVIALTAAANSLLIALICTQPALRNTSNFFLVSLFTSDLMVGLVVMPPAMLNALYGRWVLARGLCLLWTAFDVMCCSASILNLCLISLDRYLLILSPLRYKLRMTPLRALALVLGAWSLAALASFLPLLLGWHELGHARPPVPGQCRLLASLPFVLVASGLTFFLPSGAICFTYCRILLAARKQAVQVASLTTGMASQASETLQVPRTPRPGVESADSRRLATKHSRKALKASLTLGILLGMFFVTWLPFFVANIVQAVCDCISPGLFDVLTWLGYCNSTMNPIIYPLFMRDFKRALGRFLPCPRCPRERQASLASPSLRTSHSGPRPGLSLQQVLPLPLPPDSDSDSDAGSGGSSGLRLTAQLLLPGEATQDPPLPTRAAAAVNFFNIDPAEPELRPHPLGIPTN
Sequence of human recombinant D2 receptor (P14416 whole entry): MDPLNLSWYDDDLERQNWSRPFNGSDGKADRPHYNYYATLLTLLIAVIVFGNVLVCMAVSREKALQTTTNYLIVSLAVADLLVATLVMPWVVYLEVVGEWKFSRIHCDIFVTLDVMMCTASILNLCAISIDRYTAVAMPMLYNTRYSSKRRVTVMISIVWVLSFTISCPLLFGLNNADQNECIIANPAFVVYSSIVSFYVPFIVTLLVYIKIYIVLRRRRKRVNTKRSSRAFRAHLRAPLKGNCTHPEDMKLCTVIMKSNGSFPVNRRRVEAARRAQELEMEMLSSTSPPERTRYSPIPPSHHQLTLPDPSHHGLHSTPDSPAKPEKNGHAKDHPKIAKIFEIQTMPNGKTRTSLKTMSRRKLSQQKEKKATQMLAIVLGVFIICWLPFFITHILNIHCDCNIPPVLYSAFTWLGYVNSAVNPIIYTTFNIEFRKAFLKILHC

`O=c1[nH]c2c(N3CCNCC3)cccc2n1Cc1ccccc1` [Compound 64, 1-Benzyl-4-piperazin-1-yl-1,3-dihydro-benzoimidazol-2-one] was tested, and the Ki (human 5-HT6) was 0.251 nM, the Ki (human recombinant 5-HT2A) was 25.1 nM and the Ki (human recombinant 5-HT2C; [3]) was 631 nM. For the same compound, the Ki [1] was over 1000 nM, the Ki (Histamine H1 receptor) was over 316 nM and the Ki (human recombinant M1) was 200 nM. For the same compound, the Ki (human recombinant M2) was over 316 nM.

Compound `O=C1COc2c(N3CCNCC3)cccc2N1Cc1ccccc1` [Compound 3, 4-benzyl-8-piperazin-1-yl-4H-benzo[1,4]oxazin-3-one] has a Ki (human 5-HT6) of 0.158 nM, a Ki (human recombinant 5-HT2A) of 1.26 nM and a Ki (human recombinant 5-HT2C) of 63.1 nM. The Ki [1] was over 1000 nM, the Ki (Histamine H1 receptor) was over 1000 nM and the Ki (human recombinant M1) was over 1000 nM. The Ki (human recombinant M2) was over 1000 nM and the “reversal of the memory impairment induced by scopolamine (discrimination index d2)” value (male Wistar rats; 0.3 mg/kg i.p.) was “statistically significant reversal”.

In the case of `N=C(N)NCC1CCCc2cc(S(=O)(=O)c3ccccc3)ccc21` (stereo not drawn) [Compound 52, N-(6-Phenylsulfonyl-1,2,3,4-tetrahydro-naphthalen-1-ylmethyl)-guanidine], the Ki (human 5-HT6; [4]) is reported as 1.26 nM, the Ki (human recombinant 5-HT2A) is reported as 794 nM and the Ki (human recombinant 5-HT2C; [3]) is reported as 1000 nM. It also gave a Ki [1] of over 1000 nM, a Ki (Histamine H1 receptor) of over 1000 nM and a Ki (human recombinant M1) of over 1000 nM. It also gave a Ki (human recombinant M2) of over 1000 nM.

With `O=C1NCc2c(N3CCNCC3)cccc2N1Cc1cccc(F)c1` [Compound 18, 1-(3-Fluoro-benzyl)-5-piperazin-1-yl-3,4-dihydro-1H-quinazolin-2-one] the Ki (human 5-HT6) was 0.631 nM, the Ki (human recombinant 5-HT2A) was 2 nM and the Ki (human recombinant 5-HT2C) was 63.1 nM. It also gave a Ki [1] of over 1000 nM, a Ki (Histamine H1 receptor) of over 1000 nM and a Ki (human recombinant M1) of over 1000 nM. For the same compound, the Ki (human recombinant M2) was over 1000 nM, the “reversal of the memory impairment induced by scopolamine (discrimination index d2)” value (male Wistar rats; 0.3 mg/kg po) was “statistically significant reversal” and the “reversal of the memory impairment induced by scopolamine (discrimination index d2)” value (male Wistar rats; 1 mg/kg po) was “statistically significant reversal”.

`CN(C)CCO/N=C(/C=C/c1ccc(O)cc1)c1ccccc1F` [SR46349B, (1Z,2E)-1-(2-fluorophenyl)-3-(4-hydroxyphenyl)prop-2-en-1-one-O-(2-dimethylaminoethyl)oxime, reference compound] gave a Ki (human 5-HT6; [4]) of over 1000 nM, a Ki (human recombinant 5-HT2A) of 1 nM and a Ki (human recombinant 5-HT2C) of 100 nM. For the same compound, the Ki [1] was over 1000 nM, the Ki (Histamine H1 receptor) was over 1000 nM and the Ki (human recombinant M1) was over 316 nM. The Ki (human recombinant M2) was over 1000 nM.

`COc1cccc([C@H](O)C2CCN(CCc3ccc(F)cc3)CC2)c1OC` [MDL-100907, R-α-(2,3-dimethoxyphenyl)-1-[2-(4-fluorophenyl)ethyl]-4-piperidinemethanol, reference compound] was tested, and the “reversal of scopolamine-induced memory impairment (discrimination index d2)” value (male Wistar rats; 0.3 mg/kg ip) was “Statistically significant reversal” and the “long term potentiation, increase in slope of fEPSP relative to pre-tetanus baseline” value [2] was “Increase in long term potentiation”.

In the case of `CN1CCN(c2cccc3c(S(=O)(=O)c4ccccc4)c[nH]c23)CC1` [Compound 32, 3-phenylsulfonyl-7-(4-methyl-piperazin-1-yl)-1H-indole], the Ki (human 5-HT6; [4]) is reported as 0.316 nM, the Ki (human recombinant 5-HT2A) is reported as 79.4 nM and the Ki (human recombinant 5-HT2C; [3]) is reported as 158 nM. It also gave a Ki [1] of over 1000 nM, a Ki (Histamine H1 receptor) of over 316 nM and a Ki (human recombinant M1) of over 316 nM. The Ki (human recombinant M2) was over 316 nM and the “reversal of scopolamine-induced memory impairment (discrimination index d2)” value (male Wistar rats; 3 mg/kg ip) was “Statistically significant reversal”.

— patent US7713954B2, “Compositions and methods for treating cognitive disorders” (Roche Palo Alto LLC, priority 2004, dated 2010)
